Measurements taken from article PMC6722648, “Phenazine Derivatives with Anti-Inflammatory Activity from the Deep-Sea Sediment-Derived Yeast-Like Fungus Cystobasidium laryngis IV17-028” (Marine Drugs, 2019).
Read-outs that look alike come from different tables or passages of the source.

Columns and labels:
[1] = tested on: LPS-induced NO production in RAW 264.7 cells; assay: NO assay: nitrite quantification (Griess) in LPS-stimulated macrophages; type: cell-based, murine; details: Mus musculus, RAW264.7, LPS 200 ng/mL, 24 h, read-out: EC50 against NO assay
Experimental: NO2^− accumulation was used as an indicator of NO production as described previously. RAW 264.7 cells were plated at 5 × 10^5 cells/mL, pre-treated with various concentrations (0.3, 1, 3, 10 or 30 μg/mL) of 1–7 and stimulated with LPS (200 ng/mL) for 24 h. The supernatants were mixed with an equal volume of Griess reagent (1% sulfanilamide, 0.1% naphthylethylenediamine dihydrochloride and 2% phosphoric acid) and incubated at room temperature for 10 min. NaNO2 was used to generate a standard curve, and the concentration of nitrite in the medium was determined by measuring optical density at 540 nm. Cell viability was determined by XTT assay as described previously. And it was confirmed that the concentration of compounds used in this study has no significant effect on cell viability.

[2] = Stability to light and on storage (observation)

Structure (SMILES): C[C@@H](O)c1cccc2nc3c(C(N)=O)cccc3nc12 [Compound 2, saphenic amide]
- EC50 ([1]; compounds 0.3-30 μg/mL): > 30 µg/mL

Structure (SMILES): CC(=O)c1cccc2nc3c(C(=O)O)cccc3nc12 [Compound 7, 6-acetyl-phenazine-1-carboxylic acid]
- EC50 ([1]; compounds 0.3-30 μg/mL): 5.32 µg/mL
- EC50 [1]: 20 µM

Structure (SMILES): C[C@@H](O)c1cccc2nc3c([C@@H](C)O)cccc3nc12 [Compound 3, saphenol]
- EC50 ([1]; compounds 0.3-30 μg/mL): 14.7 µg/mL
- EC50 [1]: 54.7 µM

Structure (SMILES): CO[C@H](C)c1cccc2nc3c(C(=O)O)cccc3nc12 [Compound 6]
- EC50 ([1]; compounds 0.3-30 μg/mL): 5.53 µg/mL
- EC50 [1]: 19.6 µM

Structure (SMILES): O=C(O)c1cccc2nc3ccccc3nc12 [Compound 5, phenazine-1-carboxylic acid]
- EC50 ([1]; compounds 0.3-30 μg/mL): 17.1 µg/mL
- EC50 [1]: 76.1 µM

Structure (SMILES): C[C@@H](O)c1cccc2nc3c(C(=O)O)cccc3nc12 [Compound 4, (R)-saphenic acid]
- EC50 ([1]; compounds 0.3-30 μg/mL): 6.15 µg/mL
- EC50 [1]: 22.9 µM
- colour change of yellow needle form in light ([2]; day light as well as fluorescent light, also previously reported [9]): turned brown after several hours
- colour change in hydrophilic solvents under the light ([2]; methanol and dimethyl sulfoxide, under the light): quickly turned from yellow into orange

Structure (SMILES): CC(OC(=O)c1ccccc1N)c1cccc2nc3c(C(=O)O)cccc3nc12 (centres unmarked) [Compound 1, 6-[1-(2-aminobenzoyloxy)ethyl]-1-phenazinecarboxylic acid]
- EC50 ([1]; compounds 0.3-30 μg/mL): 18.1 µg/mL
- EC50 [1]: 46.8 µM
- storage stability ([2]; in the dark and fridge): changelessly stored in the dark and fridge for several weeks
- stability under the light ([2]; under the light): easily changed under the light
